Results taken from patent publication US20260083865A1, “PROSTATE SPECIFIC MEMBRANE ANTIGEN (PSMA) LIGANDS AND USE THEREOF” (priority 2022, published 2026).
Like-named read-outs stand apart in the source and are kept apart here. Numbered stars: 1 amine (or outer) side, 2 acyl side, 3 side chain; on linkers, the order of the positions; unused ones are H or OH. Bridge positions count the residues as written; N and C are the ends. Square brackets hold non-standard residues; d marks the D form. Peptide text beside a SMILES is read from it. * marks the point of attachment. TtdsdLys(DOTA)NH2 = NC(=O)[C@@H](CCCCNC(=O)CN1CCN(CC(=O)O)CCN(CC(=O)O)CCN(CC(=O)O)CC1)NC(=O)CCC(=O)NCCCOCCOCCOCCCN*; DOTA = O=C(O)CN1CCN(CC(=O)O)CCN(CC(=O)*)CCN(CC(=O)O)CC1; Oic = O=C(O)[C@@H]1C[C@@H]2CCCC[C@@H]2N1; Phe(4-Cl) = N[C@@H](Cc1ccc(Cl)cc1)C(=O)O; Ethylenediamine = C(CN[*:2])N[*:1]; X5 = O=C(c1ccc(CN[*:1])nc1)[*:2]; Tle = CC(C)(C)[C@H](N)C(=O)O; Nle = CCCC[C@H](N)C(=O)O; Aib = CC(C)(N)C(=O)O

Legend:
[1] = target: T1, PSMA-expressing C4-2 cells (Homo sapiens, UniProt Q04609); assay: FACS binding assay (competition with 50 nM PSM-0183); conditions: read-out: pIC50 [C4-2] CAT (converted)
T1 construct: PSMA-expressing C4-2 cells (ATCC, Cat. No. CRL-3314) were cultured in RPMI-1640; host or cells: C4-2 cells
T1 sequence (Q04609 whole entry): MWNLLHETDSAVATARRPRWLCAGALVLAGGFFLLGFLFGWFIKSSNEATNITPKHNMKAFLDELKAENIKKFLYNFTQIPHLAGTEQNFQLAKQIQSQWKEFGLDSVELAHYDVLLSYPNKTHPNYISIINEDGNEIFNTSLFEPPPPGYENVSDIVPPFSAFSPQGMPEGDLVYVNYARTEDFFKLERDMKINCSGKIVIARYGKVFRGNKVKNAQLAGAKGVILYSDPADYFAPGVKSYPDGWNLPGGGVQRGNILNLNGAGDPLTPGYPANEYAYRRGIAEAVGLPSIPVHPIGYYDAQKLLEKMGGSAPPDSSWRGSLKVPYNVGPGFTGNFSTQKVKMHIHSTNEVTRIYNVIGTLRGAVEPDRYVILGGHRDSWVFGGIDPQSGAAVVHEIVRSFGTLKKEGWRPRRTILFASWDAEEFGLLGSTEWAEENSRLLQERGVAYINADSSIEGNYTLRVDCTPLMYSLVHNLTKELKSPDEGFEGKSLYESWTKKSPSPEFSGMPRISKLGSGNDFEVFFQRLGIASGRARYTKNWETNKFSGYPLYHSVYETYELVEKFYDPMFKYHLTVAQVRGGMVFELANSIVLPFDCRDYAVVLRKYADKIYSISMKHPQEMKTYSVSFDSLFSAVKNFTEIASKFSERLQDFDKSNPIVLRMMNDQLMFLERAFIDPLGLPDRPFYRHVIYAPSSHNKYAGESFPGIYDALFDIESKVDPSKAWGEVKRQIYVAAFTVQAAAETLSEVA
Method in brief: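 C4-2 cells were incubated 1 h at 4 °C with 50 nM AF488-labelled peptide PSM-0183 plus increasing test compound concentrations, then washed twice in ice-cold buffer. Median fluorescence in the AF488 channel was read by flow cytometry. IC50/pIC50 was derived by 4PL fitting of MFI versus concentration.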

[2] = target: T2, Fc-fusion protein of human PSMA (hPSMA-Fc) (Homo sapiens, UniProt Q04609); assay: Surface plasmon resonance assay (Biacore T200, single cycle kinetic); type: binding; conditions: read-out: pKD CAT (converted)
T2 construct: purchased Acro Biosystems PSA-H5264
T2 sequence (Q04609 44-750 limits assumed): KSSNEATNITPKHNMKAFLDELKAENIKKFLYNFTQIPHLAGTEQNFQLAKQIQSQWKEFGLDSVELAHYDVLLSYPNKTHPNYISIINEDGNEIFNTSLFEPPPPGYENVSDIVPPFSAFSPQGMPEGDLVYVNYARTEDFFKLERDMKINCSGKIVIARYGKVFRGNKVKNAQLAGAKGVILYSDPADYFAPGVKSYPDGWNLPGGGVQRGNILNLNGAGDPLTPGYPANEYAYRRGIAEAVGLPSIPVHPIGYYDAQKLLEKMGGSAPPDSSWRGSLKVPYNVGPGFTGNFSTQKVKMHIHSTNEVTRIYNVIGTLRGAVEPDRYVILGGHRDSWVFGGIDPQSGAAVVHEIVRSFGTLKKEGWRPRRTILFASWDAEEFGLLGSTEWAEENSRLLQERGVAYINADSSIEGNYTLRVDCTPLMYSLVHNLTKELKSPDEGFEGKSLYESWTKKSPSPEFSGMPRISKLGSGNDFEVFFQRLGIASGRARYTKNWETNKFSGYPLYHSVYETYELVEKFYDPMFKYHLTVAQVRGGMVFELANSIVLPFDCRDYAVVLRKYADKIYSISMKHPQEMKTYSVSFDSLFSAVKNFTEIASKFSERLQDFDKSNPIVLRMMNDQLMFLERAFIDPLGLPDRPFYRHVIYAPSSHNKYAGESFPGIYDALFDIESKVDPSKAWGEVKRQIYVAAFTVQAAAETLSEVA
Method in brief: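 hPSMA-Fc was captured (~1000 RU) on an Fc-binding-peptide CM5 chip, and compounds were run in single cycle kinetic mode at 25° C in HBST with 0.1% DMSO. Double-blank-corrected sensorgrams were fitted to a 1:1 Langmuir model to give KD, reported as pKD.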

[3] = pIC50 category of FACS binding, C4-2 cells
[4] = pKD category for PSMA SPR activity assay, hPSMA-Fc, 25° C.

Row | Compound | IC50 [1, 3] | Kd [2, 4] | other results
1 | CCCC[C@H](NC(=O)[C@@H]1CSSC[C@H](NC(=O)[C@H](Cc2ccccc2)NC(=O)[C@H](C)NC(=O)[C@@H](NC(C)=O)[C@@H](C)O)C(=O)N[C@@H](C)C(=O)N[C@@H](CCCNC(=N)N)C(=O)N[C@@H](C)C(=O)N[C@@H](CC(N)=O)C(=O)N1)C(=O)N[C@H](C(=O)N[C@@H](CC(=O)O)C(N)=O)[C@@H](C)O [PSM-0475, Ac-Thr-Ala-Phe-[Cys-Ala-Arg-Ala-Ass-Cys]-Nle-Thr-Asp-NH2] (Ac-TAFCARANC[Nle]TD-NH2; disulfide 4-9) | 1260 to 3160 nM | > 501 nM | –
2 | CC(=O)N[C@H]1CSSC[C@@H](C(=O)N[C@@H](CC(C)C)C(=O)N[C@H](C(=O)N[C@@H](CC(=O)O)C(=O)NCCCOCCOCCOCCCNC(=O)CCC(=O)N[C@H](CCCCNC(=O)CN2CCN(CC(=O)O)CCN(CC(=O)O)CCN(CC(=O)O)CC2)C(N)=O)[C@@H](C)O)NC(=O)[C@H](CC(N)=O)NC(=O)[C@H](C)NC(=O)[C@H](CCCNC(=N)N)NC(=O)[C@H](CCCCN)NC1=O [PSM-0591, Ac-[Cys-Lys-Arg-Ala-Asn-Cys]-Leu-Thr-Asp-Ttds-lys(DOTA)-NH2] (Ac-CKRANCLTD-{TtdsdLys(DOTA)NH2}; disulfide 1-6) | – | – | IC50 ([1]; FACS binding, C4-2 cells, category): > 3160 nM; Kd ([2]; PSMA SPR assay, category): > 501 nM
3 | CCCC[C@H](NC(=O)[C@@H]1CSSC[C@H](NC(=O)[C@H](Cc2ccccc2)NC(=O)[C@H](C)NC(=O)[C@@H](NC(C)=O)[C@@H](C)O)C(=O)N[C@@H](CCCCN)C(=O)N[C@@H](CCCNC(=N)N)C(=O)N[C@@H](C)C(=O)N[C@@H](C)C(=O)N1)C(=O)N[C@H](C(=O)N[C@@H](CC(=O)O)C(N)=O)[C@@H](C)O [PSM-0335, Ac-Thr-Ala-Phe-[Cys-Lys-Arg-Ala-Ala-Cys]-Nle-Thr-Asp-NH2] (Ac-TAFCKRAAC[Nle]TD-NH2; disulfide 4-9) | – | – | IC50 ([1]; FACS binding, PSMA-expressing C4-2 cells, pIC50 category): 1260 to 3160 nM; Kd ([2]; PSMA SPR assay, hPSMA-Fc, 25° C., pKD category): 12.6 to 126 nM
4 | CC(=O)NCc1ccc(C(=O)NC(C)(C)C(=O)N[C@@H](Cc2ccc(Cl)cc2)C(=O)N[C@H]2CSSC[C@@H](C(=O)N[C@H](C(=O)NCCNC(=O)CN3CCN(CC(=O)O)CCN(CC(=O)O)CCN(CC(=O)O)CC3)C(C)(C)C)NC(=O)[C@H](CC(N)=O)NC(=O)C(C)(C)NC(=O)[C@H](CCCNC(=N)N)NC(=O)[C@H](CCCCN)NC2=O)cn1 [PSM-0186, Ac-Pamp-Aib-Pcf-[Cys-Lys-Arg-Aib-Asn-Cys]-Tle-en-DOTA] (Ac-[X5][Aib][Phe(4-Cl)]CKR[Aib]NC[Tle]-{Ethylenediamine-DOTA}; disulfide 4-9) | – | – | IC50 ([1]; FACS binding, C4-2 cells, competition with 50 nM PSM-0183, category): < 200 nM; Kd ([2]; SPR, hPSMA-Fc, single cycle kinetic, 25° C., category): < 12.6 nM

The next lines start with results.

Row | IC50 [1, 3] | Kd [2, 4] | Compound | other results
5 | < 200 nM | < 12.6 nM | CC(=O)NC(C)(C)C(=O)N[C@@H](Cc1ccccc1)C(=O)N[C@H]1CSSC[C@@H](C(=O)N[C@H](C(=O)N[C@H](C(=O)N[C@@H](CC(=O)O)C(N)=O)[C@@H](C)O)C(C)(C)C)NC(=O)[C@H](CC(N)=O)NC(=O)C(C)(C)NC(=O)[C@H](CCCNC(=N)N)NC(=O)[C@H](CCCCN)NC1=O [PSM-0442, Ac-Aib-Phe-[Cys-Lys-Arg-Aib-Asn-Cys]-Tle-Thr-Asp-NH2] (Ac-[Aib]FCKR[Aib]NC[Tle]TD-NH2; disulfide 3-8) | –
6 | < 200 nM | < 12.6 nM | CC(=O)N[C@H](C(=O)NC(C)(C)C(=O)N[C@@H](Cc1ccccc1)C(=O)N[C@H]1CSSC[C@@H](C(=O)N[C@H](C(=O)N[C@H](C(=O)N[C@@H](CC(=O)O)C(N)=O)[C@@H](C)O)C(C)(C)C)NC(=O)[C@H](CC(N)=O)NC(=O)[C@@H]2C[C@@H]3CCCC[C@@H]3N2C(=O)[C@H](CCCNC(=N)N)NC(=O)[C@H](CCCCN)NC1=O)[C@@H](C)O [PSM-0403, Ac-Thr-Aib-Phe-[Cys-Lys-Arg-Oic-Asn-Cys]-Tle-Thr-Asp-NH2] (Ac-T[Aib]FCKR[Oic]NC[Tle]TD-NH2; disulfide 4-9) | –
7 | < 200 nM | 12.6 to 126 nM | CCCC[C@H](NC(=O)[C@@H]1CSSC[C@H](NC(=O)[C@H](Cc2ccccc2)NC(=O)[C@H](C)NC(=O)[C@@H](NC(C)=O)[C@@H](C)O)C(=O)N[C@@H](CCCCN)C(=O)N[C@@H](CCCNC(=N)N)C(=O)N[C@@H](C)C(=O)N[C@@H](CC(N)=O)C(=O)N1)C(=O)N[C@H](C(=O)N[C@H](CC(=O)O)C(N)=O)[C@@H](C)O [PSM-0389, Ac-Thr-Ala-Phe-[Cys-Lys-Arg-Ala-Asn-Cys]-Nle-Thr-asp-NH2] | –
